Literature values, collected in patent publication US20040022740A1, “Macrolide formulations for inhalation and methods of treatment of endobronchial infections” (priority 2003, published 2004).

## CC[C@H]1OC(=O)[C@H](C)[C@@H](O[C@H]2C[C@@](C)(OC)[C@@H](O)[C@H](C)O2)[C@H](C)[C@@H](O[C@@H]2O[C@H](C)C[C@H](N(C)C)[C@H]2O)[C@](C)(O)C[C@@H](C)[C@@H]2N[C@@H](COCCOC)O[C@H]([C@H]2C)[C@]1(C)O [dirithromycin]
In humans
  oral bioavailability: 10-14%
In vivo
  elimination into the feces: 62-81%
